Results taken from patent US20060293346A1, “Fungicidal mixtures” (priority 2003, published 2006).

Tested on: Plasmopara viticola
Experiment: Activity against peronospora of grapevines caused by Plasmopara viticola (protective spray of potted vines, cultivar Riesling)
Type: in vivo
Conditions: individual active compound, untreated control 84% infection
Experimental: The active compounds, separately or jointly, were prepared as a stock solution comprising 0.25% by weight of active compound in acetone or DMSO. 1% by weight of the emulsifier Uniperol® EL (wetting agent having emulsifying and dispersant action based on ethoxylated alkylphenols) was added to this solution, and the mixture was diluted with water to the desired concentration.
Use Example—Activity Against peronospora of Gravevines Caused by Plasmopara viticola
Leaves of potted vines of the cultivar “Riesling” were sprayed to runoff point with an aqueous suspension having the concentration of active compound stated below. The next day, the undersides of the leaves were inoculated with an aqueous zoospore suspension of Plasmopara viticola. The grapevines were then initially placed in a water-vapor-saturated chamber at 24° C. for 48 hours and then in a greenhouse at 20-30° C. for 5 days. After this period of time, the plants were again placed in a humid chamber for 16 hours to promote sporangiophore eruption. The extent of the development of the disease on the undersides of the leaves was then determined visually.
The visually determined percentages of infected leaf areas were converted into efficacies in % of the untreated control:
The efficacy (E) is calculated as follows using Abbot's formula: E=(1−α/β)·100 • α corresponds to the fungicidal infection of the treated plants in % and • β corresponds to the fungicidal infection of the untreated (control) plants in %
An efficacy of 0 means that the infection level of the treated plants corresponds to that of the untreated control plants; an efficacy of 100 means that the treated plants were not infected.
The expected efficacies of combinations of active compounds were determined using Colby's formula (Colby, S. R. “Calculating synergistic and antagonistic responses of herbicide combinations”, Weeds, 15, pp. 20-22, 1967) and compared with the observed efficacies.
Colby's Formula: E=x+y−x·y/100 • E expected efficacy, expressed in % of the untreated control, when using the mixture of the active compounds A and B at the concentrations a and b • x efficacy, expressed in % of the untreated control, when using the active compound A at the concentration a • y efficacy, expressed in % of the untreated control, when using the active compound B at the concentration b

[1] = 4 ppm in the spray liquor, vines Riesling

CC1CCN(c2c(-c3c(F)cccc3Cl)c(Cl)nc3ncnn23)CC1 [A]
Efficacy in % of the untreated control [1]: 16%

C[C@H](Nc1c(-c2c(F)cc(F)cc2F)c(Cl)nc2ncnn12)C(F)(F)F [B]
Efficacy in % of the untreated control [1]: 52%

CC1CCN(c2c(-c3c(F)cc(F)cc3F)c(Cl)nc3ncnn23)CC1 [I, 5-chloro-7-(4-methylpiperidin-1-yl)-6-(2,4,6-trifluorophenyl)-[1,2,4]triazolo[1,5-a]pyrimidine]
Efficacy in % of the untreated control [1]: 52%

Fc1ccc(Oc2ccnc3cc(Cl)cc(Cl)c23)cc1 [II (quinoxyfen), 5,7-dichloro-4-(4-fluorophenoxy)quinoline]
Efficacy in % of the untreated control (1 ppm in the spray liquor (cell prints 161 = 16 and 1)): 0%
Efficacy in % of the untreated control (16 ppm in the spray liquor (cell prints 161 = 16 and 1)): 16%
